# Assay results taken from PMC9421654, “Discovery of Substituted Di(pyridin-2-yl)-1,2,4-thiadiazol-5-amines as Novel Macrofilaricidal Compounds for the Treatment of Human Filarial Infections” (Journal of Medicinal Chemistry, 2022).
# Like-named read-outs stand apart in the source and are kept apart here.
# Assays:
# [1] = test system: O. gutturosa adult male worms; assay: O. gutturosa adult worm ex vivo assay, motility; type: cell-based, Onchocerca gutturosa; conditions: Onchocerca gutturosa
# Experimental: (§1) Activity against O. gutturosa adult male worms was determined using reported procedures.[7] The EC50 values were calculated using Microsoft Office Excel (2010) data analysis software. The tested compound is considered active when a motility reduction of ≥50% is observed by comparison to the untreated controls. O. gutturosa adult male worms were obtained postmortem from freshly slaughtered cattle. The worms were dissected from the nuchal ligament connective tissues of naturally infected cattle in Gambia, West Africa; the material was purchased from the International Trypanotolerance Centre, Banjul, from local butchers for use in this study. The adult worms were transferred individually to each well of a sterile 24-well (2 mL) plate (Thermo Fisher Scientific, UK) and maintained for at least 24 h in culture before use. The medium used was a minimum essential medium (MEM) with Earl’s salts and L-glutamine (Life Technologies Ltd., UK) supplemented with 10% heat inactivated newborn calf serum (Life Technologies Ltd., UK), 200 units/mL penicillin, 200 μg/mL streptomycin, and 0.5 μg/mL amphotericin B (Life Technologies Ltd., UK). Only normally active worms were used for the test, and all assays were conducted at 37 °C and 5% CO2. The positive control drug used was Immiticide (melarsomine dihydrochloride, Merial, USA). Known amounts of compounds were solubilized in 1 mL of DMSO. All stock solutions were allowed to stand at room temperature prior to use. The test items (four worms/drug concentration) were compared to untreated controls (six worms) and the positive control (two worms/drug concentration). Drug efficacy was assessed by the measurement of mean worm motility scores on a scale of 0 (immotile) to 10 (maximum) every 24 h, terminating at 120 h, using an Olympus inverted microscope. The results are reported as a percentage of the maximum score obtainable (100%) by calculating the motility index scores. The test drug is considered active when a motility reduction of ≥50% is observed by comparison to the untreated controls. […] In addition, biochemical evaluation of worm viability was assessed using MTT/formazan colorimetry. The MTT assay was carried out after the last motility reading (120 h). Single intact worms were placed in each well of a 48-well plate (Thermo Fisher Scientific, UK) containing 0.5 mL of 0.5 mg/mL MTT (Sigma, UK) in PBS solution and then incubated for 30 min at 37 °C. The worms were removed, blotted carefully, and individually transferred to separate wells of a 96-well microtiter plate, each containing 200 μL of DMSO to solubilize the formazan. After 1 h, the plate was gently agitated to disperse the color evenly and the absorbance value (optical density, OD) of the resulting formazan solution was determined at 490 nm using an absorbance microplate reader (Biotek ELx800, Thermo Fisher Scientific, UK). The results are expressed as the mean OD per drug concentration. Inhibition of formazan formation is correlated with worm damage or death.
# Data S1. Onchocerca gutturosa adult male worms EC 50 Curves
# Plotted using Graph Pad Prism 7.03, least square original fit, sigmoidal, 4PL
# The measurement of mean worm motility every 24 h, terminating at 120 h, serial 1 in 4 drug dilutions to find
# activity endpoint and produce EC50 values (geomean, n=2) for motility reduction. (4 worms per drug […]
# [2] = Liver S9 metabolic stability assay, rat; type: in vitro ADME; conditions: 3 μM, 60 min
# Experimental: (§2) Liver S9 Metabolic Stability Assay: Incubations were performed at 37 °C in a Dubnoff Shaking water bath using 2 mL 96-well incubation plates. Rat and human S9 protein concentrations were 0.75 mg/ml and 1.2 mg/ml, respectively. The final concentrations of NADPH, UDPGA, and GSH were 1, 0.5, and 2.5 mM, and the final concentration of PAPS was 0.05 mg/ml. Substrate concentrations were 3µM, incubation time was 60 minutes, and all tests were done in triplicate. The incubation was conducted in 200 mM Tris buffer containing 2 mM magnesium chloride, pH=7.4 and the total incubation volume was 0.5 ml. Samples were analysed via LC-MS/MS and reported as percentage remaining after incubation for 60 minutes. […]
# [3] = Liver S9 metabolic stability assay, human; type: in vitro ADME; conditions: 3 μM, 60 min
# Experimental: as §2
# [4] = LogD measurement (octanol-water); type: physicochemical
# Experimental: LogD Measurement: Measurement of octanol-water distribution coefficient of samples using a […]
# stock solutions for plating. Aqueous Phase: 100mM Buffer, pH=7.4 (0.1M Potassium phosphate buffer, diluted from Sigma 1M P3619-1GA to 0.1 M with MilliQ water), pH=2.2 (0.1M- NaCl pH adjusted with 0.1N HCL), pH=6.8 (0.1M - KH2PO4/K2HPO4), pH=5 (4 .04g of NaOH (Pellets), 8.65g of Glacial Acetic Acid, 11.874g of NaCl. In in 1 liter water. Adjusted to pH to 5 with either 1N NaOH or 1N HCl); Organic Phase: 1-Octanol (O021). Sample Concentration:
# 1000uM, […] 10 mM DMSO stock solution diluted in […] of organic Phase and […] of aqueous Phase. DMSO content: 10%. The controls were plated from the standard 10 mM DMSO stock and run on the standard concentration ([…]) range of the assay. Incubation time:
# Sonication for 30 minutes followed by 24 hours shaking at 750 rpm in 96 deep well plate (VWR
# [5] = Kinetic solubility measurement; type: physicochemical
# Experimental: Kinetic Solubility Measurement: The standard kinetic solubility assay runs on […] concentration range using 10 mM DMSO stock solutions for plating. Single point calibration assay runs in duplicates. Concentration of standards: […] DMSO solutions prepared by diluting 10 mM stock, solution with DMSO. Concentration of samples: 200 µM, 4 µl 10 mM DMSO stock solution diluted with the appropriate buffer to […]. DMSO content:
# 2%. Buffers: pH=7.4 (0.1M Potassium phosphate buffer, diluted from Sigma 1M P3619-1GA to 0.1 M with MilliQ water), pH=2.2 (0.1M- NaCl pH adjusted with 0.1N HCL), pH=6.8 (0.1M - KH2PO4/K2HPO4), pH=5 (4 .04g of NaOH (Pellets), 8.65g of Glacial Acetic Acid, 11.874g of NaCl. In in 1 liter water. Adjusted to pH to 5 with either 1N NaOH or 1N HCl). The controls were plated from the standard 10 mM DMSO stock and run on the standard concentration (200µM) range of the assay. Incubation time: 24 hours shaking at […] in Millipore Multiscreen HTS filter plate for Aqueous Solubility Assay (MSSLBPC50), on room temperature.
# After incubation time filtration with positive pressure manifold was performed. […]
# [6] = target: T1, hERG potassium channels (KCNH2, expressed in HEK293 cells) (Homo sapiens, UniProt Q12809); assay: hERG inhibition; type: cell-based
# T1 construct: expressed in transfected cells
# T1 sequence (Q12809 whole entry): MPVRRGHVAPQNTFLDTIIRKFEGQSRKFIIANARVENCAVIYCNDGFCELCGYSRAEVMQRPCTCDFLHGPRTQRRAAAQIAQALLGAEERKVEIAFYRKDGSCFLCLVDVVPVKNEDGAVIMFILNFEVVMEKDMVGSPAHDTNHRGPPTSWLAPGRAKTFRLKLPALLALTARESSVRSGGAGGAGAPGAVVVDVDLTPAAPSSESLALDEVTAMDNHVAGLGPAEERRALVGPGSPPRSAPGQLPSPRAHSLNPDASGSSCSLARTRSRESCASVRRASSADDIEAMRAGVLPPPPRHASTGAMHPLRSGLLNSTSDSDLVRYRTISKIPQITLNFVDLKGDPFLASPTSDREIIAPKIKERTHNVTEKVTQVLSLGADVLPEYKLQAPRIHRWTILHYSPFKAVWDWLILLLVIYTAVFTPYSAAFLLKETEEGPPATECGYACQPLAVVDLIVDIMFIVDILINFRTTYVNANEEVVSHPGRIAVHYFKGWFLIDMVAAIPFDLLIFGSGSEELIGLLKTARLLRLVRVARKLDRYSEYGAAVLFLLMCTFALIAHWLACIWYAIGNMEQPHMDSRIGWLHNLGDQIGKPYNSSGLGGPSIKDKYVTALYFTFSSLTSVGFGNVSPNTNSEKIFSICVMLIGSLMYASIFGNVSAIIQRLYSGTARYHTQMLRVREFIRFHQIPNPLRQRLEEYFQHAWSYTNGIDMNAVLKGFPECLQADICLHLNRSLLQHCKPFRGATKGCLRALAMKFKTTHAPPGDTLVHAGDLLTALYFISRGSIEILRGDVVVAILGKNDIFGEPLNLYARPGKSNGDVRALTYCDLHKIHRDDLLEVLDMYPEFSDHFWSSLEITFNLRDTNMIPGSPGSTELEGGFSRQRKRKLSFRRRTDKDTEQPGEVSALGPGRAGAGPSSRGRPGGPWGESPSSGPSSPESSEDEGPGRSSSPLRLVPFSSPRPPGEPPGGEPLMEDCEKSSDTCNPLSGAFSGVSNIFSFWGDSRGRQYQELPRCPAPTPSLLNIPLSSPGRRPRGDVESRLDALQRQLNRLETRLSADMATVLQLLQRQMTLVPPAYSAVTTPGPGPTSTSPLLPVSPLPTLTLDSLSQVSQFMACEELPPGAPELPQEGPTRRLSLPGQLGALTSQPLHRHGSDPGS
# [7] = test system: O. gutturosa adult male worms; assay: O. gutturosa adult worm ex vivo assay, MTT/formazan viability; type: cell-based, Onchocerca gutturosa; conditions: supplement, SD in brackets in the PDF table, read-out: O. gutturosa EC50 (uM) MTT viability inhibition
# Experimental: as §1
# THLE-2 cells = assay: THLE-2 cytotoxicity assay (ATP); conditions: Homo sapiens, THLE-2, read-out: THLE IC50
# Experimental: In vitro cytotoxicity of select compounds was tested in a “normal” proliferating transformed human liver epithelial (THLE-2) cell line.[35] Compounds were incubated in THLE-2 cells for 24 and 72 h, and adenosine triphosphate (ATP) levels were used as an indicator of cell viability.
# THLE-2 Cytotoxicity Assay: THLE-2 cells (ATCC, catalog #CRL-2706) were plated in LHC-8 Media (Invitrogen, catalog #12679015) supplemented with fetal bovine serum (GE, catalog #SH30088.03), 70 ng/mL phosphoethanolamine (Sigma, catalog #P0503), 5 ng/mL EGF (Sigma, catalog #E9644), 1X penicillin/streptomycin (Gibco, catalog #15140148), and 1X glutamine (Invitrogen, catalog #25030024) in 384-well clear-bottom, black walled plates at a density of 3750 cells/well (15μL/well). After plating, cells were incubated overnight at 37°C in an incubator with 5% CO2 and 90% humidity. Compounds were first serially diluted in dimethyl sulfoxide then diluted in LHC-8 media growth media to 2X concentration. Cells were dosed with 15μL of each dose for final concentrations between 0.01 – 300 μM. Cells were incubated with compounds for 24 or 72 hours. Cytotoxicity was determined with Cell Titer Glo Luminescent ATP Assay (Promega, catalog #G7573) according to the manufacturer’s instructions. Tamoxifen (Sigma, catalog #BC9353476) was used as a positive control. levels at each dose were normalized to that of cells dosed with dimethyl sulfoxide vehicle alone and IC50 values were calculated from non-linear regression fits of dose-response curves plotted
# P-gp (MDR1) = target: T2, P-gp (MDR1) (Homo sapiens, UniProt P08183); assay: MDCK/MDR1 permeability and efflux; type: in vitro ADME; conditions: dog
# T2 construct: expressed in transfected cells; host or cells: MDCK (Madin Darby canine kidney) cells
# T2 sequence (P08183 whole entry): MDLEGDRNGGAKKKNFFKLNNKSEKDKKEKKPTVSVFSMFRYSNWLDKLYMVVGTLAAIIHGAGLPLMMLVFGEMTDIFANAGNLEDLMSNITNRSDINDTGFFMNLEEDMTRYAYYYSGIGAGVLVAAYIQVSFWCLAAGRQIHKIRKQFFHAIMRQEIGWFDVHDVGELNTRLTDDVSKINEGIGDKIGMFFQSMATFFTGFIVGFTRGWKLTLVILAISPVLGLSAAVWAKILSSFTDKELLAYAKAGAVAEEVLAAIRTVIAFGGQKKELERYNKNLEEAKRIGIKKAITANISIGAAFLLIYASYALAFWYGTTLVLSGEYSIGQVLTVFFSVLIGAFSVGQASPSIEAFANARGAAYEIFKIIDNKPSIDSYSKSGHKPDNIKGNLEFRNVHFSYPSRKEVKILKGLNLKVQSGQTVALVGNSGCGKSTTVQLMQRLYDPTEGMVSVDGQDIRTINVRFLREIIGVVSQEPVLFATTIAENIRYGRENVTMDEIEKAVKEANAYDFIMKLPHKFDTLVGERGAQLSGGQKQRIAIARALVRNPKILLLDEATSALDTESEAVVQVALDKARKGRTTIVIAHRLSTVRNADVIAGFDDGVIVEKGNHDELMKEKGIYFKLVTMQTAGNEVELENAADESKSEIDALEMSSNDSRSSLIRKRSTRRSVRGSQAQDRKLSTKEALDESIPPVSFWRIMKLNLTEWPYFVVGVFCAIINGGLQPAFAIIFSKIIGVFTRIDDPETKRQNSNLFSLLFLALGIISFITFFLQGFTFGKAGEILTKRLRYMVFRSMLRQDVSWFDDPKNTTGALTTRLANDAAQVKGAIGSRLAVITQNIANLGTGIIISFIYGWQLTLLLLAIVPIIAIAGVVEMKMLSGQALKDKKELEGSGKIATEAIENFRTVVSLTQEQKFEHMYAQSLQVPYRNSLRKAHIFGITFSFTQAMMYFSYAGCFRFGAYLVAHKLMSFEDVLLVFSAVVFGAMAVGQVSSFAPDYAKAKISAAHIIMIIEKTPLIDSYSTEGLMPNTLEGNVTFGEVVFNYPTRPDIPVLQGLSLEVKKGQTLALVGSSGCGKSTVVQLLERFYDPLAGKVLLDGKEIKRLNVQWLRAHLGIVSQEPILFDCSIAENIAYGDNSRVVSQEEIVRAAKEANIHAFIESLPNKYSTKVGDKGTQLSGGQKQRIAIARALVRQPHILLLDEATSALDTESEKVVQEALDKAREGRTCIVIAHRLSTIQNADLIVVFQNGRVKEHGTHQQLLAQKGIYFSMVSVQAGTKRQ
# Source text: Our approach was to target compounds with efflux ratio (ER) >2.5 in the MDCK cell line transfected with MDR1 (multidrug resistance-1 transfected Madin Darby canine kidney cell line). […] Our goal was to impart structural elements designed to impart Pgp recognition.
# [8] = read-out: O. gutturosa EC50 μM (SD), ex vivo adult worm motility reduction, SD in brackets
# [9] = read-out: O. gutturosa EC50 (uM) motility inhibition, supplement, SD in brackets in the PDF table
# [10] = supplement, read-out: measured logD
SMILES,"EC50 [1, 8] [µM]","EC50 [1, 9] [µM]","EC50 ([1]; read-out: O. gutturosa EC50, adult worm motility, bound stated) [µM]",Rat S9 metabolic stability [2] [% remaining],Human S9 metabolic stability [3] [% remaining],"logD at 24 h [4, 10]",solubility kinetic at 24 h ([5]; 10 mM DMSO stock solutions) [µM],IC50 ([6]; supplement) [µM],EC50 ([7]; Onchocerca gutturosa) [µM],"logD at 24 h ([4]; pH 7.4, read-out: logD)",EC50 [7] [µM],IC50 [6] [µM],IC50 (THLE-2 cells) [µM],solubility kinetic at 24 h ([5]; supplement) [µM],Papp A→B (P-gp (MDR1)) [×10⁻⁶ cm/s]
Cc1cccnc1Nc1nc(-c2ccc(OC3CCOCC3)cn2)ns1 [Compound 3],0.03,0.027,< 0.1,82,84,2.2,7.3,19,0.24,–,–,–,–,–,–
Cc1cccnc1Nc1nc(-c2cc(C#N)c(OC(C)C)cn2)ns1 [Compound 15],1.37,–,–,84,100,2.3,0.3,> 30,0.71,2.3,–,–,–,–,–
"Cc1cccnc1Nc1nc(-c2ccc(C(=O)N(C)C)cn2)ns1 [Compound 18, N,N-Dimethyl-6-(5-((3-methylpyridin-2-yl)amino)-1,2,4-thiadiazol-3-yl)nicotinamide]",0.06,0.062,–,94,97,1.7,73.2,> 30,0.09,1.7,0.087,–,–,–,–
"Cc1cccnc1Nc1nc(-c2ccc(OC3CCN(C4CC4)CC3(F)F)cn2)ns1 (stereo not drawn) [Compound 20, 3-(5-((1-Cyclopropyl-3,3-difluoropiperidin-4-yl)oxy)pyridin-2-yl)-N-(3-methylpyridin-2-yl)-1,2,4-thiadiazol-5-amine]",0.24,0.236,–,32,52,2.8,–,–,0.3,2.8,–,> 30,–,–,–
"COc1cccnc1Nc1nc(-c2ccc(OC(C)C)cn2)ns1 [Compound 28, 3-(5-Isopropoxypyridin-2-yl)-N-(3-methoxypyridin-2-yl)-1,2,4-thiadiazol-5-amine]",0.08,0.076,–,100,100,1.7,7.25,–,0.62,1.7,–,–,7.7,–,–
CC(=O)Nc1cccnc1Nc1nc(-c2ccc(OC(C)C)cn2)ns1 [Compound 46],1.27,–,–,–,–,2.4,29.4,> 30,1.37,2.4,–,–,–,29.5,–
"CC(=O)N(C)c1cc(C(F)(F)F)cnc1Nc1nc(-c2cc(OC(C)C)ccn2)ns1 [Compound 55, N-(2-((3-(4-Isopropoxypyridin-2-yl)-1,2,4-thiadiazol-5-yl)amino)-5-(trifluoromethyl)pyridin-3-yl)-N-methylacetamide]",0.01,0.013,–,–,–,3,–,–,0.04,3,–,–,–,–,1.7
